One assay addresses T1, CDK2 (Homo sapiens, UniProt P24941).
T1 construct: endogenous in cells; host or cells: MDA-MB-231
As to the kind of experiment: CDK protein degradation activity (Western blotting), CDK2. The assay is classed as cell-based. Particulars: MDA-MB-231 cells, 16 hours, Western blot. Put shortly:
(§1)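 MDA-MB-231 cells were treated with compound at final concentrations of 100 nM, 1 μM and 10 μM, or DMSO vehicle, for 16 h. Lysates were resolved by SDS-PAGE and immunoblotted for CDK2, CDK9 and tubulin, with band intensities quantified densitometrically.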
On the technique in general: Immunoblotting shows a protein as a band on a membrane.

The next assay addresses T2, CDK9 (Homo sapiens, UniProt P50750).
T2 construct: endogenous in cells; host or cells: MDA-MB-231
As to the kind of experiment: CDK protein degradation activity (Western blotting), CDK9. The assay is classed as cell-based. Conditions: MDA-MB-231 cells, 16 hours, Western blot. The essentials:
as §1

T2 sequence (P50750 whole entry): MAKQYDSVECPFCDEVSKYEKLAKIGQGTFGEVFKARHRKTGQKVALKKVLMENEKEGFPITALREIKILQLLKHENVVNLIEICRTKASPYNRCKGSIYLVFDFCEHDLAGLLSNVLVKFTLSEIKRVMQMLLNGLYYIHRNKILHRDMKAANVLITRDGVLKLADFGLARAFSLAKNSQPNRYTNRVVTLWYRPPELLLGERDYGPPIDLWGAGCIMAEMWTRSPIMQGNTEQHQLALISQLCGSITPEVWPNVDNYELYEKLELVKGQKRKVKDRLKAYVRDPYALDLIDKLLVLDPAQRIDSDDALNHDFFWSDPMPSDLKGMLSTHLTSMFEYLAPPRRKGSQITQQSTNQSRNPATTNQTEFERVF

As for `O=C1CCC(N2C(=O)c3ccc(NCC(=O)N4CCC(CN5CCC(CNc6ncnc7c6ncn7[C@H]6C[C@@H](NC(=O)c7c(Cl)cccc7Cl)C6)CC5)CC4)cc3C2=O)C(=O)N1` (stereo partly drawn) [Compound 171, 2,6-dichloro-N-((1s,3s)-3-(6-(((1-((1-((2-(2,6-dioxopiperidin-3-yl)-1,3-dioxoisoindolin-5-yl)glycyl)piperidin-4-yl)methyl)piperidin-4-yl)methyl)amino)-9H-purin-9-yl)cyclobutyl)benzamide], at CDK2, the “Enzyme degradation CDK2 (% remaining) @ 0.1 μM” value worked out at 20%, the “Enzyme degradation CDK2 (% remaining) @ 1 μM” value was 10% and the “Enzyme degradation CDK2 (% remaining) @ 10 μM” value was found to be 10%. Further, on CDK9, the “Enzyme degradation CDK9 (% remaining) @ 0.1 μM” value was 0/0/0%, the “Enzyme degradation CDK9 (% remaining) @ 1 μM” value is on record as 0/0/0% and the “Enzyme degradation CDK9 (% remaining) @ 10 μM” value is on record as 0/0/0%.

With `O=C1CC[C@H](N2C(=O)c3ccc(N4CCC(C(=O)N5CCC6(CC5)CC(N5CCN(c7ccc(Nc8ncnc9c8ncn9C8CC(NC(=O)Cc9ccccc9)C8)cc7)CC5)C6)CC4)cc3C2=O)C(=O)N1` (stereo partly drawn) [Compound 353, N-((1s,3s)-3-(6-((4-(4-(7-(1-(2-(2,6-dioxopiperidin-3-yl)-1,3-dioxoisoindolin-5-yl)piperidin-4-carbonyl)-7-azaspiro[3.5]nonan-2-yl)piperazin-1-yl)phenyl)amino)-9H-purin-9-yl)cyclobutyl)-2-phenylacetamide], at CDK2, the “Enzyme degradation CDK2 (% remaining) @ 0.1 μM” value is recorded as 70%, the “Enzyme degradation CDK2 (% remaining) @ 1 μM” value was 40% and the “Enzyme degradation CDK2 (% remaining) @ 10 μM” value is on record as 40%. Also, at CDK9, the “Enzyme degradation CDK9 (% remaining) @ 0.1 μM” value is 10/10/10%, the “Enzyme degradation CDK9 (% remaining) @ 1 μM” value was 10/10/10% and the “Enzyme degradation CDK9 (% remaining) @ 10 μM” value is listed as 10/10/10%.

For `Cc1cccc(C(=O)N[C@H]2C[C@@H](n3cnc4c(NCCC5CCN(CC6CCN(C(=O)CCNc7ccc8c(c7)C(=O)N([C@H]7CCC(=O)NC7=O)C8=O)CC6)CC5)ncnc43)C2)n1` (racemic) [Compound 310, N-((1s,3s)-3-(6-((2-(1-((1-(3-((2-(2,6-dioxopiperidin-3-yl)-1,3-dioxoisoindolin-5-yl)amino)propanoyl)piperidin-4-yl)methyl)piperidin-4-yl)ethyl)amino)-9H-purin-9-yl)cyclobutyl)-6-methylpicolinamide], on CDK2, the “Enzyme degradation CDK2 (% remaining) @ 0.1 μM” value was 100%, the “Enzyme degradation CDK2 (% remaining) @ 1 μM” value is on record as 70% and the “Enzyme degradation CDK2 (% remaining) @ 10 μM” value is 100%. Moreover, on CDK9, the “Enzyme degradation CDK9 (% remaining) @ 0.1 μM” value amounted to 40%, the “Enzyme degradation CDK9 (% remaining) @ 1 μM” value was 0% and the “Enzyme degradation CDK9 (% remaining) @ 10 μM” value worked out at 0%.

For `O=C1CCC(N2C(=O)c3ccc(N4CCC(CCN5CCN(c6ccc(Nc7ncnc8c7ncn8[C@H]7C[C@@H](NC(=O)Cc8ccccc8)C7)cc6)CC5)CC4)cc3C2=O)C(=O)N1` (stereo partly drawn) [Compound 327, N-((1s,3s)-3-(6-((4-(4-(2-(1-(2-(2,6-dioxopiperidin-3-yl)-1,3-dioxoisoindolin-5-yl)piperidin-4-yl)ethyl)piperazin-1-yl)phenyl)amino)-9H-purin-9-yl)cyclobutyl)-2-phenylacetamide], on CDK2, the “Enzyme degradation CDK2 (% remaining) @ 0.1 μM” value is recorded as 20%, the “Enzyme degradation CDK2 (% remaining) @ 1 μM” value was 0% and the “Enzyme degradation CDK2 (% remaining) @ 10 μM” value is 0%. Also, at CDK9, the “Enzyme degradation CDK9 (% remaining) @ 0.1 μM” value is 0/0/0%, the “Enzyme degradation CDK9 (% remaining) @ 1 μM” value was 0/0/0% and the “Enzyme degradation CDK9 (% remaining) @ 10 μM” value is given as 0/0/0%.

On to `CC(=O)NC1CC(n2cnc3c(NCC4CCN(CC5CCN(c6cccc7c6C(=O)N([C@H]6CCC(=O)NC6=O)C7=O)CC5)CC4)ncnc32)C1` (stereo partly drawn) [Compound 159, N-((1s,3s)-3-(6-(((1-((1-(2-(2,6-dioxopiperidin-3-yl)-1,3-dioxoisoindolin-4-yl)piperidin-4-yl)methyl)piperidin-4-yl)methyl)amino)-9H-purin-9-yl)cyclobutyl)acetamide], for which, at CDK2, the “Enzyme degradation CDK2 (% remaining) @ 0.1 μM” value is 100%, the “Enzyme degradation CDK2 (% remaining) @ 1 μM” value turned out to be 80% and the “Enzyme degradation CDK2 (% remaining) @ 10 μM” value is 50%. Further, at CDK9, the “Enzyme degradation CDK9 (% remaining) @ 0.1 μM” value came to 90%, the “Enzyme degradation CDK9 (% remaining) @ 1 μM” value came to 70% and the “Enzyme degradation CDK9 (% remaining) @ 10 μM” value is on record as 30%.

Regarding `O=C1CC[C@H](N2C(=O)c3cccc(NCC(=O)N4CCC(CN5CCN(c6ccc(Nc7ncnc8c7ncn8C7CC(NC(=O)c8cccc(F)n8)C7)cc6)CC5)CC4)c3C2=O)C(=O)N1` (stereo partly drawn) [Compound 430, N-((1s,3s)-3-(6-((4-(4-((1-((2-(2,6-dioxopiperidin-3-yl)-1,3-dioxoisoindolin-4-yl)glycyl)piperidin-4-yl)methyl)piperazin-1-yl)phenyl)amino)-9H-purin-9-yl)cyclobutyl)-6-fluoropicolinamide], at CDK2, the “Enzyme degradation CDK2 (% remaining) @ 0.1 μM” value was 10/10/10%, the “Enzyme degradation CDK2 (% remaining) @ 1 μM” value is listed as 10/10/10% and the “Enzyme degradation CDK2 (% remaining) @ 10 μM” value is reported as 10/10/10%. Moreover, on CDK9, the “Enzyme degradation CDK9 (% remaining) @ 0.1 μM” value was 0/0/0%, the “Enzyme degradation CDK9 (% remaining) @ 1 μM” value is 0/0/0% and the “Enzyme degradation CDK9 (% remaining) @ 10 μM” value is 0/0/0%.

Regarding `Cc1cccc(C(=O)N[C@H]2C[C@@H](n3cnc4c(NCc5cccc(N6CCN(CC7CCN(c8cccc9c8C(=O)N([C@H]8CCC(=O)NC8=O)C9=O)CC7)CC6)c5)ncnc43)C2)n1` [Compound 136, N-((1s,3s)-3-(6-((3-(4-((1-(2-(2,6-dioxopiperidin-3-yl)-1,3-dioxoisoindolin-4-yl)piperidin-4-yl)methyl)piperazin-1-yl)benzyl)amino)-9H-purin-9-yl)cyclobutyl)-6-methylpicolinamide], at CDK2, the “Enzyme degradation CDK2 (% remaining) @ 0.1 μM” value was 100%, the “Enzyme degradation CDK2 (% remaining) @ 1 μM” value is 100% and the “Enzyme degradation CDK2 (% remaining) @ 10 μM” value turned out to be 60%. In addition, on CDK9, the “Enzyme degradation CDK9 (% remaining) @ 0.1 μM” value was 10%, the “Enzyme degradation CDK9 (% remaining) @ 1 μM” value was found to be 70% and the “Enzyme degradation CDK9 (% remaining) @ 10 μM” value worked out at 40%.

Consider `N#Cc1cccc(C(=O)N[C@H]2C[C@@H](n3cnc4c(Nc5ccc(N6CCN(CC7CCN(c8ccc9nnn([C@H]%10CCC(=O)NC%10=O)c(=O)c9c8)CC7)CC6)cc5)ncnc43)C2)n1` (racemic) [Compound 418, 6-cyano-N-((1s,3s)-3-(6-((4-(4-((1-(3-(2,6-dioxopiperidin-3-yl)-4-oxo-3,4-dihydrobenzo[d][1,2,3]triazin-6-yl)piperidin-4-yl)methyl)piperazin-1-yl)phenyl)amino)-9H-purin-9-yl)cyclobutyl)picolinamide], for which, on CDK2, the “Enzyme degradation CDK2 (% remaining) @ 0.1 μM” value was 10/10/10%, the “Enzyme degradation CDK2 (% remaining) @ 1 μM” value was 10/10/10% and the “Enzyme degradation CDK2 (% remaining) @ 10 μM” value is reported as 10/10/10%. At CDK9, the “Enzyme degradation CDK9 (% remaining) @ 0.1 μM” value is 0/0/0%, the “Enzyme degradation CDK9 (% remaining) @ 1 μM” value is on record as 0/0/0% and the “Enzyme degradation CDK9 (% remaining) @ 10 μM” value is reported as 0/0/0%.
